Experimental data published in PubChem BioAssay AID1963847 (Molecular Pharmacology Branch, DTP, NCI, 2024).
pIC50: −log10 of the molar value.

System: 415267-285-R-J2-PDC complex spheroid viability
Assay: Anticancer human tumor 415267-285-R-J2-PDC patient-derived breast carcinoma cell line growth inhibition [POLQ]
Conditions: for pIC50: curve of first compound; for viability, T/C: stronger effect = lower value; active means viability on the fitted dose curve at most 10% of control; inactive means the rest
Description: Multicellular complex tumor spheroid response to Polymerase (POL) inhibitors (novobiocin, ART-558, RP6685) in combination with a variety of drugs and investigational agents in selected tumor cell lines
The POL inhibitors (novobiocin, ART-558, and RP6685) were evaluated both individually and in combination with standard of care and investigational anticancer small molecules within a complex spheroid model of solid tumors. . Complex spheroids include a stromal component modeled by human endothelial cells (HUVEC) and fibroblasts modeled by human mesenchymal stem cells (MSCs). The concentration ranges selected for each drug and investigational agent were based upon clinically achievable concentrations if the clinical Cmax of the agent was known.
Compounds. The drugs and investigational agents: novobiocin (NSC847541), ART-558 (NSC835418), RP-6685 (NSC848927), peposertib (NSC802822), ceralasertib (NSC780249), elimusertib (NSC800525), camonsertib (NSC841442), AZD-1390 (NSC803789), olaparib (NSC753686), talazoparib (NSC767125), rucaparib (NSC756644), sotorasib (NSC818433), MRTX-1133 (NSC836407), SN-38 (NSC673596), topotecan (NSC609699), epotoside (NSC141540), doxorubicin (NSC123127), gemcitabine (NSC613327), 5-fluorouracil (NSC19893), paclitaxel (NSC125973), vemurafenib (NSC761431), MSA-2 (NSC828583), SN-011 (NSC837082), adavosertib (NSC754352), prexasertib (NSC758257), carboplatin (NSC241240) and oxaliplatin (NSC266046), were obtained from the National Cancer Institute (NCI) Developmental Therapeutics Program Chemical Repository (21). The FDA-approved anticancer drug set is available from the Developmental Therapeutics Program at https://dtp.cancer.gov/organization/dscb/obtaining/. […] The stock solutions were prepared in dimethyl sulfoxide (DMSO, Sigma-Aldrich, St. Louis, MO, cat. D2650), except for the platinum compounds which were prepared in saline (Quality Biological, Gaithersburg, MD, cat. 114-055-101), at 800-fold the tested concentration and stored at -70 degrees C prior to their use. All drugs and investigational agents were tested over a range starting from a high concentration at or near the clinical Cmax and decreasing in half-log increments. If the clinical Cmax for an agent had not been determined, the highest concentration tested was 10 microM, except for SN-38, which was tested at a high concentration of 1 microM.
Cell Culture. All cells were maintained in an incubator at 37 degrees C and 5% CO2 with 95% humidity. The PDC lines were cultured according to standard operating procedures established by the NCI PDMR (https://pdmr.cancer.gov). Table 3 of the manuscript, lists the cell lines along with the number of the three cell types plated to form the mct-spheroids and media for tumor cell growth. After thawing, all PDC lines, except 997537-175-T-J1-PDC and 415267-285-R-J2-PDC, were cultured in Matrigel-coated flasks prepared with a working solution of 1X Ham's F-12 nutrient mix, without supplementation (Thermo Fisher Scientific, cat. 11765054), 100 U/mL penicillin-streptomycin (Thermo Fisher Scientific, cat. 15140122), and 2.5% Matrigel (Corning Inc., Corning, NY, cat. 354248) for the first three passages. The two PDC lines 997537-175-T-J1-PDC and 415267-285-R-J2-PDC were cultured on uncoated flasks. The 857933-349-R-J2-PDC line was cultured in 6C/Colon 1B media containing advanced DMEM/F-12 (Thermo Fisher Scientific, cat. 12634028), 10 mM HEPES (Thermo Fisher Scientific, cat. 15630080), 1X GlutaMAX supplement (Thermo Fisher Scientific, cat. 35050061), 0.1 mg/mL primocin (InvivoGen, San Diego, CA, cat. ant-pm-2), 10% defined fetal bovine serum, heat inactivated (HyClone Laboratories Inc., Logan, UT, cat. SH30070.03HI), 50% L-WRN conditioned media (ATCC, cat. CRL-3276), 1.25 mM N-Acetyl-L-cysteine (Sigma-Aldrich, cat. A9165), 10 mM nicotinamide (Sigma-Aldrich, cat. N0636), 1X B-27 supplement (Thermo Fisher Scientific, cat. 17504044), 1X N-2 supplement (Thermo Fisher Scientific, cat. […]

[1] = second compound 0.0316 µM, first compound 0.0316 µM
[2] = second compound 0.0316 µM, first compound 0.1 µM
[3] = second compound 0.1 µM, first compound 0.0316 µM
[4] = second compound 0.1 µM, first compound 0.1 µM
[5] = second compound 0.316 µM, first compound 0.0316 µM
[6] = second compound 0.316 µM, first compound 0.1 µM
[7] = second compound 1 µM, first compound 0.0316 µM
[8] = second compound 1 µM, first compound 0.1 µM
[9] = second compound 3.16 µM, first compound 0.0316 µM
[10] = second compound 3.16 µM, first compound 0.1 µM
[11] = second compound 10 µM, first compound 0.0316 µM
[12] = second compound 10 µM, first compound 0.1 µM
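Further: spheroids exposed to compounds for one week before readout.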
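Wherever viability, T/C is given: luminescence used as stand-in measure of viable cells.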

Cn1ncnc1[C@H]1c2n[nH]c(=O)c3cc(F)cc(c23)N[C@@H]1c1ccc(F)cc1 + Nc1ccc(C#CCN(C(=O)Cc2ncc(C(F)(F)F)cc2C(F)(F)F)c2ccc(F)cc2)nn1
< 7.00: pIC50 (second compound 0.0316 µM) | pIC50 (second compound 0.1 µM) | pIC50 (second compound 0.316 µM) | pIC50 (second compound 1 µM) | pIC50 (second compound 3.16 µM) | pIC50 (second compound 10 µM)
inactive: viability, T/C (second compound 0.0316 µM, first compound 0.000316 µM) 101% | viability, T/C (second compound 0.0316 µM, first compound 0.001 µM) 97.2% | viability, T/C (second compound 0.0316 µM, first compound 0.00316 µM) 101% | viability, T/C (second compound 0.0316 µM, first compound 0.01 µM) 93.7% | viability, T/C [1] 95.8% | viability, T/C [2] 97.8% | viability, T/C (second compound 0.1 µM, first compound 0.000316 µM) 96.7% | viability, T/C (second compound 0.1 µM, first compound 0.001 µM) 109% | viability, T/C (second compound 0.1 µM, first compound 0.00316 µM) 86.9% | viability, T/C (second compound 0.1 µM, first compound 0.01 µM) 92.6% | viability, T/C [3] 99.8% | viability, T/C [4] 94.8% | viability, T/C (second compound 0.316 µM, first compound 0.000316 µM) 88.7% | viability, T/C (second compound 0.316 µM, first compound 0.001 µM) 102% | viability, T/C (second compound 0.316 µM, first compound 0.00316 µM) 88.2% | viability, T/C (second compound 0.316 µM, first compound 0.01 µM) 99.6% | viability, T/C [5] 95.5% | viability, T/C [6] 110% | viability, T/C (second compound 1 µM, first compound 0.000316 µM) 98.9% | viability, T/C (second compound 1 µM, first compound 0.001 µM) 101% | viability, T/C (second compound 1 µM, first compound 0.00316 µM) 109% | viability, T/C (second compound 1 µM, first compound 0.01 µM) 99.5% | viability, T/C [7] 105% | viability, T/C [8] 120% | viability, T/C (second compound 3.16 µM, first compound 0.000316 µM) 97.8% | viability, T/C (second compound 3.16 µM, first compound 0.001 µM) 113% | viability, T/C (second compound 3.16 µM, first compound 0.00316 µM) 114% | viability, T/C (second compound 3.16 µM, first compound 0.01 µM) 91.6% | viability, T/C [9] 101% | viability, T/C [10] 108% | viability, T/C (second compound 10 µM, first compound 0.000316 µM) 89.8% | viability, T/C (second compound 10 µM, first compound 0.001 µM) 105% | viability, T/C (second compound 10 µM, first compound 0.00316 µM) 108% | viability, T/C (second compound 10 µM, first compound 0.01 µM) 94.2% | viability, T/C [11] 101% | viability, T/C [12] 105%

O=c1[nH]cc(F)c(=O)[nH]1 + Nc1ccc(C#CCN(C(=O)Cc2ncc(C(F)(F)F)cc2C(F)(F)F)c2ccc(F)cc2)nn1
inactive: viability, T/C [1] 101% | viability, T/C [2] 93% | viability, T/C (second compound 0.0316 µM, first compound 0.316 µM) 57.5% | viability, T/C (second compound 0.0316 µM, first compound 1 µM) 21.4% | viability, T/C (second compound 0.0316 µM, first compound 3.16 µM) 29.9% | viability, T/C (second compound 0.0316 µM, first compound 10 µM) 40.1% | viability, T/C [3] 86.4% | viability, T/C [4] 85.5% | viability, T/C (second compound 0.1 µM, first compound 0.316 µM) 43% | viability, T/C (second compound 0.1 µM, first compound 1 µM) 20.9% | viability, T/C (second compound 0.1 µM, first compound 3.16 µM) 30% | viability, T/C (second compound 0.1 µM, first compound 10 µM) 38.5% | viability, T/C [5] 93.6% | viability, T/C [6] 97% | viability, T/C (second compound 0.316 µM, first compound 0.316 µM) 45.1% | viability, T/C (second compound 0.316 µM, first compound 1 µM) 24.4% | viability, T/C (second compound 0.316 µM, first compound 3.16 µM) 24.6% | viability, T/C (second compound 0.316 µM, first compound 10 µM) 46.4% | viability, T/C [7] 97% | viability, T/C [8] 92.7% | viability, T/C (second compound 1 µM, first compound 0.316 µM) 49.1% | viability, T/C (second compound 1 µM, first compound 1 µM) 27.1% | viability, T/C (second compound 1 µM, first compound 3.16 µM) 30.4% | viability, T/C (second compound 1 µM, first compound 10 µM) 35.4% | viability, T/C [9] 106% | viability, T/C [10] 90.7% | viability, T/C (second compound 3.16 µM, first compound 0.316 µM) 44.5% | viability, T/C (second compound 3.16 µM, first compound 1 µM) 22.4% | viability, T/C (second compound 3.16 µM, first compound 3.16 µM) 24.1% | viability, T/C (second compound 3.16 µM, first compound 10 µM) 42.3% | viability, T/C [11] 113% | viability, T/C [12] 87% | viability, T/C (second compound 10 µM, first compound 0.316 µM) 52.5% | viability, T/C (second compound 10 µM, first compound 1 µM) 26.5% | viability, T/C (second compound 10 µM, first compound 3.16 µM) 26.6% | viability, T/C (second compound 10 µM, first compound 10 µM) 39%
6.36: pIC50 (second compound 0.0316 µM)
6.55: pIC50 (second compound 0.316 µM)
6.57: pIC50 (second compound 3.16 µM)
6.58: pIC50 (second compound 0.1 µM)
6.51: pIC50 (second compound 1 µM) | pIC50 (second compound 10 µM)
